Results: ChEMBL document CHEMBL4831488, “Design, synthesis, docking, molecular dynamics and bioevaluation studies on novel N-methylpicolinamide and thienopyrimidine derivatives with inhibiting NF-κB and TAK1 activities: Cheminformatics tools RDKit applied in drug design” (Eur J Med Chem, 2021)
Values belong to the compound of their own block, whether it stands above or below them.

Experiments:
HCT-116 [1] = experiment: Cytotoxicity against human HCT-116 cells assessed as inhibition of cell growth at 20 uM measured after 72 hrs by MTT assay relative to control; assay type: functional
A549 [2] = experiment: Cytotoxicity against human A549 cells assessed as inhibition of cell growth at 20 uM measured after 72 hrs by MTT assay relative to control; assay type: functional
A549 [3] = experiment: Cytotoxicity against human A549 cells assessed as inhibition of cell growth measured after 72 hrs by MTT assay; assay type: functional, cell-based
MAP3K7/TAB1 [+] = experiment: Inhibition of Tak1/Tab1 (unknown origin) assessed as inhibition of Tak1 kinase activity preincubated for 30 mins followed by addition of MBP protein and ATP and measured after 2 hrs by ADP-Glo kinase assay
MDA-MB-231 = experiment: Cytotoxicity against human MDA-MB-231 cells assessed as inhibition of cell growth at 20 uM measured after 72 hrs by MTT assay relative to control; assay type: functional
TAK1-TAB1 fusion protein = TAK1-TAB1 fusion protein (Homo sapiens, UniProt O43318); experiment: Inhibition of Tak1/Tab1 (unknown origin) assessed as inhibition of Tak1 kinase activity preincubated for 30 mins followed by addition of MBP protein and ATP and measured after 2 hrs by ADP-Glo kinase assay
Sequence of TAK1-TAB1 fusion protein (O43318 whole entry, looked up, the tested form may be a part): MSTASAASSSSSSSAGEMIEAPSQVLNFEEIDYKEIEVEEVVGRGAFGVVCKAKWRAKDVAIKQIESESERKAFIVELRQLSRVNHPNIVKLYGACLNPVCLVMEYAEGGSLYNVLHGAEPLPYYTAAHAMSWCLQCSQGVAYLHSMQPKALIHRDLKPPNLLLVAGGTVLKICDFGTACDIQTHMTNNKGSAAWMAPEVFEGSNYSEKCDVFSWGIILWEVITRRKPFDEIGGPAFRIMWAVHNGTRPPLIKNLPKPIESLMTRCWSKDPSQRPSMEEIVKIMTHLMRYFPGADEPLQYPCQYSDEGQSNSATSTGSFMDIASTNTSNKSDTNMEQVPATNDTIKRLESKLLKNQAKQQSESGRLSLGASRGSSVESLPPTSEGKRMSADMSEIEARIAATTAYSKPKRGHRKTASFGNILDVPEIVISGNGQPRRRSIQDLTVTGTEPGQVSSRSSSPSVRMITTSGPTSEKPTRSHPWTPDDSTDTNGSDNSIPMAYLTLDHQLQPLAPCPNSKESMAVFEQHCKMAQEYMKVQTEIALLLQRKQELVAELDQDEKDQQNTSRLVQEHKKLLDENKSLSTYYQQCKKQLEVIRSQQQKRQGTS

HCT-116 [4] = experiment: Cytotoxicity against human HCT-116 cells assessed as inhibition of cell growth measured after 72 hrs by MTT assay; assay type: functional, cell-based; details: HCT-116, 72 h
[5] = Homo sapiens, A549, 72 h, read-out: IC50

- IC50 (MAP3K7/TAB1 [+]): Not Active
Compound: CN(c1ccc(Oc2ncnc3ccsc23)cc1)c1nccc(N2CCCC2)n1
- inhibition at 20 µM (HCT-116 [1]): 63.5%
- inhibition at 20 µM (A549 [2]): 63.9%
- IC50 (A549 [3]; [5]): 6.51 µM
- inhibition at 20 µM (MDA-MB-231): 38%

Compound: c1cc(N2CCCC2)nc(Nc2ccc(Oc3ncnc4ccsc34)cc2)n1
- inhibition at 20 µM (HCT-116 [1]): 22.2%
- inhibition at 20 µM (A549 [2]): 23.2%
- IC50 (A549 [3]; a549): Not Active
- inhibition at 20 µM (MDA-MB-231): 14.3%

Compound: CN(C)c1ccc(C(=O)Nc2ccc(Oc3ncnc4ccsc34)cc2)cc1
- inhibition at 20 µM (HCT-116 [1]): 53.9%
- inhibition at 20 µM (A549 [2]): 50.8%
- IC50 (A549 [3]; [5]): 20.2 µM
- inhibition at 20 µM (MDA-MB-231): 10.4%

- IC50 (TAK1-TAB1 fusion protein): 12 µM
Compound: CN(c1ccc(Oc2ncnc3sccc23)cc1)c1nccc(N2CCc3ccccc3C2)n1
- inhibition at 20 µM (HCT-116 [1]): 57.7%
- inhibition at 20 µM (A549 [2]): 68.4%
- IC50 (A549 [3]; [5]): 6.39 µM
- inhibition at 20 µM (MDA-MB-231): 24.3%

- IC50 (TAK1-TAB1 fusion protein): 1.26 µM
Compound: CNC(=O)c1cc(Oc2ccc(Nc3nccc(N4CCc5ccccc5C4)n3)cc2)ccn1
- inhibition at 20 µM (HCT-116 [1]): 31.2%
- inhibition at 20 µM (A549 [2]): 59.6%
- IC50 (A549 [3]; [5]): 3.19 µM
- inhibition at 20 µM (MDA-MB-231): 41.2%
- IC50 (HCT-116 [4]): 15.8 µM

Compound: CN(c1ccc(Oc2ncnc3sccc23)cc1)c1nccc(N2CCCCC2)n1
- inhibition at 20 µM (HCT-116 [1]): 52.1%
- inhibition at 20 µM (A549 [2]): 51.9%
- IC50 (A549 [3]; [5]): 8.79 µM
- inhibition at 20 µM (MDA-MB-231): 29.3%

Compound: CN(c1ccc(Oc2ncnc3ccsc23)cc1)c1nccc(N2CCCCC2)n1
- inhibition at 20 µM (HCT-116 [1]): 66.2%
- inhibition at 20 µM (A549 [2]): 65.7%
- IC50 (A549 [3]; [5]): 8.24 µM
- inhibition at 20 µM (MDA-MB-231): 49.7%

Compound: CN(c1ccc(Oc2ncnc3sccc23)cc1)c1nccc(N2CCCC2)n1
- inhibition at 20 µM (HCT-116 [1]): 42.2%
- inhibition at 20 µM (A549 [2]): 55.5%
- IC50 (A549 [3]; [5]): 15.1 µM
- inhibition at 20 µM (MDA-MB-231): 31%

- IC50 (TAK1-TAB1 fusion protein): 2.52 µM
Compound: c1cc(N2CCCCC2)nc(Nc2ccc(Oc3ncnc4sccc34)cc2)n1
- inhibition at 20 µM (HCT-116 [1]): 66.3%
- inhibition at 20 µM (A549 [2]): 64.8%
- IC50 (A549 [3]; [5]): 4.02 µM
- inhibition at 20 µM (MDA-MB-231): 40.4%

Compound: c1cc(N2CCCC2)nc(Nc2ccc(Oc3ncnc4sccc34)cc2)n1
- inhibition at 20 µM (HCT-116 [1]): 54.4%
- inhibition at 20 µM (A549 [2]): 61%
- IC50 (A549 [3]; [5]): 8.1 µM
- inhibition at 20 µM (MDA-MB-231): 24.7%

Compound: CNC(=O)c1cc(Oc2ccc(Nc3nccc(N4CCOCC4)n3)cc2)ccn1
- inhibition at 20 µM (HCT-116 [1]): 48.3%
- inhibition at 20 µM (A549 [2]): 66.3%
- IC50 (A549 [3]; [5]): 7.34 µM
- inhibition at 20 µM (MDA-MB-231): 34.1%
- IC50 (HCT-116 [4]): 12.8 µM

- IC50 (TAK1-TAB1 fusion protein): 1.36 µM
Compound: CNC(=O)c1cc(Oc2ccc(Nc3nccc(N4CCCC4)n3)cc2)ccn1
- inhibition at 20 µM (HCT-116 [1]): 66.4%
- inhibition at 20 µM (A549 [2]): 59.6%
- IC50 (A549 [3]; [5]): 3.41 µM
- inhibition at 20 µM (MDA-MB-231): 46.6%
- IC50 (HCT-116 [4]): 1.41 µM

Compound: c1ccc2c(c1)CCN2c1ccnc(Nc2ccc(Oc3ncnc4sccc34)cc2)n1
- inhibition at 20 µM (HCT-116 [1]): -0.62%
- inhibition at 20 µM (A549 [2]): 2.81%
- IC50 (A549 [3]; a549): Not Active
- inhibition at 20 µM (MDA-MB-231): 9.95%

Compound: c1cc(N2CCCCC2)nc(Nc2ccc(Oc3ncnc4ccsc34)cc2)n1
- inhibition at 20 µM (HCT-116 [1]): 61.5%
- inhibition at 20 µM (A549 [2]): 59.9%
- IC50 (A549 [3]; [5]): 7.8 µM
- inhibition at 20 µM (MDA-MB-231): 45.7%

- IC50 (TAK1-TAB1 fusion protein): 15.7 µM
Compound: c1cc(N2CCOCC2)nc(Nc2ccc(Oc3ncnc4ccsc34)cc2)n1
- inhibition at 20 µM (HCT-116 [1]): 53.1%
- inhibition at 20 µM (A549 [2]): 57.9%
- IC50 (A549 [3]; [5]): 6.86 µM
- inhibition at 20 µM (MDA-MB-231): 23%

- IC50 (TAK1-TAB1 fusion protein): 6.87 µM
Compound: c1ccc2c(c1)CCN(c1ccnc(Nc3ccc(Oc4ncnc5sccc45)cc3)n1)C2
- inhibition at 20 µM (HCT-116 [1]): 18.1%
- inhibition at 20 µM (A549 [2]): 34%
- IC50 (A549 [3]; [5]): 6.75 µM
- inhibition at 20 µM (MDA-MB-231): 26.8%

Compound: c1ccc2c(c1)CCN(c1ccnc(Nc3ccc(Oc4ncnc5ccsc45)cc3)n1)C2
- inhibition at 20 µM (HCT-116 [1]): 40.9%
- inhibition at 20 µM (A549 [2]): 54.9%
- IC50 (A549 [3]; [5]): 17 µM
- inhibition at 20 µM (MDA-MB-231): 15.4%

Compound: c1ccc(CNc2ccc(Oc3ncnc4ccsc34)cc2)cc1
- inhibition at 20 µM (HCT-116 [1]): -12.2%
- inhibition at 20 µM (A549 [2]): 30.6%
- IC50 (A549 [3]; a549): Not Active
- inhibition at 20 µM (MDA-MB-231): 3.72%

Compound: CCN(CC)c1ccc(C(=O)Nc2ccc(Oc3ncnc4ccsc34)cc2)cc1
- inhibition at 20 µM (HCT-116 [1]): 37.9%
- inhibition at 20 µM (A549 [2]): 63.8%
- IC50 (A549 [3]; [5]): 8.03 µM
- inhibition at 20 µM (MDA-MB-231): 38.3%

Compound: CN(c1ccc(Oc2ncnc3ccsc23)cc1)c1nccc(N2CCc3ccccc3C2)n1
- inhibition at 20 µM (HCT-116 [1]): 58.3%
- inhibition at 20 µM (A549 [2]): 69.9%
- IC50 (A549 [3]; [5]): 16.1 µM
- inhibition at 20 µM (MDA-MB-231): 30.2%

Compound: CN(c1ccc(Oc2ncnc3ccsc23)cc1)c1nccc(N2CCc3ccccc32)n1
- inhibition at 20 µM (HCT-116 [1]): 57.8%
- inhibition at 20 µM (A549 [2]): 58.2%
- IC50 (A549 [3]; [5]): 20.5 µM
- inhibition at 20 µM (MDA-MB-231): 38.2%

Compound: CN(c1ccc(Oc2ncnc3sccc23)cc1)c1nccc(N2CCc3ccccc32)n1
- inhibition at 20 µM (HCT-116 [1]): 20%
- inhibition at 20 µM (A549 [2]): 29.4%
- IC50 (A549 [3]; [5]): 19.6 µM
- inhibition at 20 µM (MDA-MB-231): 17.6%

Compound: c1cc(N2CCOCC2)nc(Nc2ccc(Oc3ncnc4sccc34)cc2)n1
- inhibition at 20 µM (HCT-116 [1]): 37.5%
- inhibition at 20 µM (A549 [2]): 36.7%
- IC50 (A549 [3]; [5]): 9.31 µM
- inhibition at 20 µM (MDA-MB-231): 14.5%
